Laboratory results: patent US6040309A, “Benzothiophene derivatives useful in therapy” (Pfizer, Inc., priority 1997, dated 2000)
pIC50: −log10 of the molar value. Bridges are numbered along the chain shown (N, C = ends). Where no end group is shown, it is not given here.

What was measured:
neointimal formation = details: cited from earlier work
ETA receptor = biological target: T1, ETA receptor (Rattus norvegicus, UniProt P26684); assay: In Vitro Vascular Smooth Muscle Activity, Rat Aorta (ET-1 contraction; Test B); format: cell-based; details: read-out: pA2 (converted)
T1 construct: Rat aortae are cleaned of connective tissue and fat and cut into helical strips; from tissue; host or cells: rat aorta, helical strips, endothelium removed
T1 sequence (P26684 21-426): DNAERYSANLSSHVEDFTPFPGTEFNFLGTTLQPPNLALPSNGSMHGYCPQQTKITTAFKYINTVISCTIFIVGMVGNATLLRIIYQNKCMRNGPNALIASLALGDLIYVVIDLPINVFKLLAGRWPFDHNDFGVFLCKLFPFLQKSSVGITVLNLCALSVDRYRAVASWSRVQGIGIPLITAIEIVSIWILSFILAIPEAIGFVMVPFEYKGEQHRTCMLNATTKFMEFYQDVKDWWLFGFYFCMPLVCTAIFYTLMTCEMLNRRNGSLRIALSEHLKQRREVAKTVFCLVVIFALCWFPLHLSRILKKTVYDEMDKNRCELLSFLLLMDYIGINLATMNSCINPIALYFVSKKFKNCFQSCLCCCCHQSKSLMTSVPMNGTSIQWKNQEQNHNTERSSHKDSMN
Excerpt: B. In Vitro Vascular Smooth Muscle Activity
Rat aortae are cleaned of connective tissue and fat and cut into helical strips approx 4 mm in width. The endothelium is removed by dragging the luminal surface of the tissue gently across filter paper moistened with Krebs solution of composition (mM) NaCl 130, KCl 5.6, NaHCO3 25, Glucose 11.1, NaH2 PO4 0.6, CaCl2 2.16, MgCl2 0.5, gassed with 95% O2 /5% CO2. The strips are mounted in isolated organ baths in Krebs solution under a resting tension of 1 gram. Organ bath solutions are maintained at 37° C. and continuously aerated with 95% O2 /5% CO2. […] After equilibration in the organ bath for 1 hour, tissues are contracted by the addition of KCl to a final concentration of 60 mM. The KCl is removed by replacing the Krebs solution, with two further washes with Krebs solution. To determine the potency of an ETA receptor antagonist, two tissues are cumulatively dosed with ET-1 (0.1 nM-1 μM); other tissues are dosed with ET-1 (0.1 nM-1 μM) in duplicate, beginning 30 minutes after the inclusion in the organ bath medium of the test compound. Sufficient tissues are used per experiment to generate dose-response curves to ET-1 in the absence and the presence of at least 3 concentrations of antagonist. Data are expressed as the mean±s.e.m. Dissociation constants (kb) of competitive antagonists are calculated by the method of Arunlakshana and Schild.

rabbit ETA receptor = details: cited from earlier work
human ETA receptor = details: cited from earlier work

Row | Kb (ETA receptor) | Compound | pIC50 (rabbit ETA receptor) | other results
1 | – | CCCOc1ccc2c(c1)[C@@H](c1ccc(OC)cc1OCC(=O)O)[C@H](C(=O)O)[C@H]2c1ccc2c(c1)OCO2 [SB-209670] | – | reduction in neointimal formation (neointimal formation; relative to control animals): 50%
2 | 0.0148 µM | O=C(O)c1sc2cc(OCc3cccnc3)ccc2c1Sc1ccccc1O [Example 56] | – | –
3 | 0.229 µM | O=C(O)c1sc2cc(Cn3ccnc3)ccc2c1Sc1ccccc1O [Example 71] | – | –
4 | – | CC(C)Oc1c(C(=O)O)sc2ccc(OCc3ccccc3)cc12 [5-benzyloxy-3-isopropoxybenzo[b]thiophene-2-carboxylic acid] | 5.22 | pIC50 (human ETA receptor): 5.06
5 | – | COc1cccc(Sc2c(C(=O)O)sc3ccccc23)c1 [3-[(3-methoxyphenyl)sulfanyl]benzo[b]thiophene-2-carboxylic acid] | 5.23 | –
6 | – | ET-1: isoform of endothelin, 21-amino acid peptide, potent vasoconstrictor (CSCSSLMDKECVYFCHLDIIW; disulfide 1-15, 3-11; ends not checked; UniProt P05305 53-73, looked up) | – | effect on neointimal formation (neointimal formation; in rats after balloon angioplasty): potentiate neointimal formation
